These results are taken from PMC8541628, “Development of Novel Quinoline-Based Sulfonamides as Selective Cancer-Associated Carbonic Anhydrase Isoform IX Inhibitors” (International Journal of Molecular Sciences, 2021).

One data set has as its target hCA XII (Homo sapiens, UniProt O43570). Put plainly: stopped flow carbon dioxide hydrase assay, hCA XII. The conditions noted are these: for Selectivity ratio I/XII: hCA XII over hCA I; for Selectivity ratio II/XII: hCA XII over hCA II.
For another data set, the target named is hCA IX (Homo sapiens, UniProt Q16790). Description: stopped flow carbon dioxide hydrase assay, hCA IX. Conditions: for Selectivity ratio I/IX: hCA IX over hCA I; for Selectivity ratio II/IX: hCA IX over hCA II.
Another data set addresses hCA II (Homo sapiens, UniProt P00918). Description: stopped flow carbon dioxide hydrase assay, hCA II.
The target of a further data set is hCA I (Homo sapiens, UniProt P00915). Description: stopped flow carbon dioxide hydrase assay, hCA I.
hCA I, sequence (P00915 whole entry): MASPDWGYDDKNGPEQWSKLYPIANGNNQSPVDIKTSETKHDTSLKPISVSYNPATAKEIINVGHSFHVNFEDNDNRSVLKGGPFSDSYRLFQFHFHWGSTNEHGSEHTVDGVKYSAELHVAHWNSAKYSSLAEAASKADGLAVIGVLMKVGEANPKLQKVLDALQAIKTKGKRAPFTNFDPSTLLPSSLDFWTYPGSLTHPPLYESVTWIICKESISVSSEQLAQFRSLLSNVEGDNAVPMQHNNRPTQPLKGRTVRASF
Another data set relates to MCF-7. Description: 72 h MTT anti-proliferative assay under hypoxic conditions, MCF-7. The data set is classed as cell-based. Conditions: Homo sapiens, MCF7, mean ± S.D. of three experiments. Here is the method:
Therefore, QBS 11c and 13b were further screened for their potential in vitro anti-proliferative action against two breast cancer cell lines (MDA-MB-231 and MCF-7) under hypoxic conditions, exploiting a 72 h MTT assay protocol and using Doxorubicin as a positive control drug.
All adopted procedures for the conducted in vitro biological assays were performed as described earlier; CA (stopped-flow), cytotoxicity (MTT [37, 38]), and assessment of apoptotic markers assays, as well as induction of hypoxia with cobalt chloride, and were mentioned in the Supporting Materials.
(§1) 1. Carbonic anhydrase inhibition assay
16) herein reported have were assayed utilizing an instrument of Applied Photophysics stopped-flow. The enzymes are recombinant proteins prepared in our lab. Phenol red (at a concentration of 0.2 mM) has been used as indicator, working at the absorbance maximum of 557 nm, with 20 mM Hepes (pH 7.5) as buffer, and 20 mM Na2SO4 (for maintaining constant the ionic strength), […]
parameters and inhibition constants. For each inhibitor at least six traces of the initial 5-10% of the reaction have been used for determining the initial velocity . Th e un cat aly zed rates were determined in the same manner and subtracted from the total observed rates. Stock solutions of inhibitor (0.1 mM) were prepared in distilled-deionized water and dilutions up to 0.01 nM were done thereafter with the assay buffer. Inhibitor and enzyme solutions were preincubated together for 15 min at room temperature prior to assay, in order to allow fo r the formation of the E-I complex. […]
Cells were sub-cultured with try psine /EDTA solution, counted with haemocy tometer and plated onto 96-well plates (5000 cells/well) and left overnight to form a semi-confluent […]
monolay er. […] DMSO (100 µl/well) was added to dissolve the formazan crystals with shaking for 10 min after which the absorbance was read at 590 nm against no cell blanks on a FLuo Star Optima microplate reader (BMG technologies, Germany). Cell proliferation was calculated comparing the OD values of the DMSO control wells and those of the samples
Background: Formazan colour is commonly taken as a measure of viable cells.

In another data set the test system is MDA-MB-231. Description: 72 h MTT anti-proliferative assay under hypoxic conditions, MDA-MB-231. Type of data set: cell-based. The conditions noted are these: Homo sapiens, mean ± S.D. of three experiments.
Excerpt: as §1
The enzymes are recombinant proteins prepared in our lab.
parameters and inhibition constants.
2. Anti-proliferative action toward human breast cell lines

hCA XII, sequence (O43570 25-354): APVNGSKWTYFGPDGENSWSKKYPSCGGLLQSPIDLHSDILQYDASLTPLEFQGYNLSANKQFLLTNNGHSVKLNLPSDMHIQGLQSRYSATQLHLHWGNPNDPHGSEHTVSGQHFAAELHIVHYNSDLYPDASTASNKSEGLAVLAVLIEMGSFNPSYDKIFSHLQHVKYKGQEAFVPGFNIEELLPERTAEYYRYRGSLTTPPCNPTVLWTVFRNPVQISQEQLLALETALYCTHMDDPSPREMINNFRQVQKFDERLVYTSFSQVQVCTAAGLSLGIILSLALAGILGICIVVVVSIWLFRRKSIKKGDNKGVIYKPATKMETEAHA

The molecule `NS(=O)(=O)c1ccccc1Nc1ccnc2ccc(Cl)cc12` [9c, 2-((6-chloroquinolin-4-yl)amino)benzenesulfonamide] displayed a melting point of 258 to 260 °C. Besides, on hCA XII, affinity was put at a Ki of 38.4 nM, the “Selectivity ratio I/XII” value is on record as 32.3 and the “Selectivity ratio II/XII” value is recorded as 2.3. Besides, on hCA IX, the affinity corresponds to a Ki of 65.6 nM, the “Selectivity ratio I/IX” value came out at 18.9 and the “Selectivity ratio II/IX” value is 1.3. Also, at hCA II, the affinity corresponds to a Ki of 86.8 nM. Further, the Ki at hCA I was determined as 1240 nM.

Turning to `COc1ccc2nccc(Nc3ccccc3S(N)(=O)=O)c2c1` [9b, 2-((6-methoxyquinolin-4-yl)amino)benzenesulfonamide], the melting point fell in the range of 275 to 277 °C. At hCA XII, the inhibitory constant (Ki) was found to be 42.1 nM, the “Selectivity ratio I/XII” value amounted to 20.5 and the “Selectivity ratio II/XII” value amounted to 1.2. On hCA IX, the affinity, expressed as Ki, was 39.2 nM; the “Selectivity ratio I/IX” value amounted to 22.1; the “Selectivity ratio II/IX” value is 1.3. Also, the Ki at hCA II turned out to be 49.7 nM. The molecule also returned an inhibitory constant (Ki) on hCA I of 864 nM.

Turning to `Cc1ccc2nccc(Nc3ccc(S(N)(=O)=O)cc3)c2c1` [13a, 4-((6-methylquinolin-4-yl)amino)benzenesulfonamide], the melting point was in the range of 270 to 272 °C. Also, at hCA XII, the affinity, expressed as Ki, was 9.8 nM; the “Selectivity ratio I/XII” value stood at 8.0; the “Selectivity ratio II/XII” value is on record as 3.7. Besides, on hCA IX, the inhibitory constant (Ki) was determined as 25.8 nM, the “Selectivity ratio I/IX” value was determined as 3.0 and the “Selectivity ratio II/IX” value was found to be 1.4. For the same molecule, the Ki on hCA II worked out at 36.5 nM. The molecule further gave a Ki on hCA I of 78.4 nM.

Regarding `Cc1ccc2nccc(Nc3cccc(S(N)(=O)=O)c3)c2c1` [11a, 3-((6-methylquinolin-4-yl)amino)benzenesulfonamide], the melting point lay within 272 to 274 °C. In addition, at hCA XII, the Ki was determined as 41.2 nM, the “Selectivity ratio I/XII” value was 16.1 and the “Selectivity ratio II/XII” value came to 6.4. Besides, at hCA IX, the affinity, expressed as Ki, was 70.1 nM; the “Selectivity ratio I/IX” value turned out to be 9.5; the “Selectivity ratio II/IX” value came out at 3.8. The molecule also came in with an inhibitory constant (Ki) on hCA II of 265 nM. At hCA I, this molecule showed a Ki of 663 nM.

`NS(=O)(=O)c1cccc(Nc2ccnc3cc(C(F)(F)F)cc(C(F)(F)F)c23)c1` [11d, 3-((5,7-bis(trifluoromethyl)quinolin-4-yl)amino)benzenesulfonamide] gave a melting point of 172 to 174 °C. Further, at hCA XII, the Ki stood at 34 nM, the “Selectivity ratio I/XII” value came to 3.1 and the “Selectivity ratio II/XII” value stood at 6.5. For the same molecule, on hCA IX, the Ki was found to be 52.9 nM, the “Selectivity ratio I/IX” value turned out to be 2.0 and the “Selectivity ratio II/IX” value is 4.2. Affinity at hCA II was put at a Ki of 221 nM. On hCA I, this molecule gave an inhibition constant Ki of 105 nM.

The molecule `NS(=O)(=O)c1ccc(Nc2ccnc3ccc(Cl)cc23)cc1` [13c, 4-((6-chloroquinolin-4-yl)amino)benzenesulfonamide] had a melting point of 284 to 286 °C. At hCA XII, the affinity, expressed as Ki, was 8.7 nM; the “Selectivity ratio I/XII” value was determined as 6.4; the “Selectivity ratio II/XII” value was determined as 0.8. Besides, on hCA IX, the inhibition constant Ki was 18.6 nM, the “Selectivity ratio I/IX” value is listed as 3.0 and the “Selectivity ratio II/IX” value was determined as 0.4. The inhibition constant Ki on hCA II worked out at 7.3 nM. The molecule further returned a Ki on hCA I of 55.4 nM.

For `COc1ccc2nccc(NNC(=O)c3ccc(S(N)(=O)=O)cc3)c2c1` [compound 16, 4-(2-(6-Methoxyquinolin-4-yl)hydrazine-1-carbonyl)benzenesulfonamide], the melting point was 228 to 230 °C. At hCA XII, the affinity, expressed as Ki, was 25.4 nM; the “Selectivity ratio I/XII” value was found to be 3.2; the “Selectivity ratio II/XII” value turned out to be 1.2. At hCA IX, the affinity, expressed as Ki, was 21.7 nM; the “Selectivity ratio I/IX” value is recorded as 3.8; the “Selectivity ratio II/IX” value worked out at 1.4. This molecule also displayed a Ki on hCA II of 31.1 nM. This molecule also had a Ki on hCA I of 81.4 nM.

As to `COc1cccc2c1C(=O)c1c(O)c3c(c(O)c1C2=O)C[C@@](O)(C(=O)CO)C[C@@H]3O[C@H]1C[C@H](N)[C@H](O)[C@H](C)O1` [Doxorubicin, reference compound], the 50% inhibitory concentration (IC50) came out at 3.04 ± 0.14 µM in the data set on MCF-7 and 1670 ± 80 nM with MDA-MB-231.

Turning to `Cc1ccc2nccc(Nc3ccc(C)c(S(N)(=O)=O)c3)c2c1` [11e, 2-methyl-5-((6-methylquinolin-4-yl)amino)benzenesulfonamide], the melting point lay within 280 to 282 °C. Besides, on hCA XII, the inhibitory constant (Ki) was 88.1 nM, the “Selectivity ratio I/XII” value is given as 39.7 and the “Selectivity ratio II/XII” value worked out at 17.1. On hCA IX, the affinity, expressed as Ki, was 104 nM; the “Selectivity ratio I/IX” value stood at 33.8; the “Selectivity ratio II/IX” value was determined as 14.5. The molecule further came in with a Ki at hCA II of 1500 nM. Also, at hCA I, the affinity corresponds to a Ki of 3500 nM.

`COc1ccc2nccc(Nc3ccc(C)c(S(N)(=O)=O)c3)c2c1` [11f, 5-((6-methoxyquinolin-4-yl)amino)-2-methylbenzenesulfonamide] displayed a melting point of 248 to 250 °C. Further, on hCA XII, the affinity, expressed as Ki, was 152 nM; the “Selectivity ratio I/XII” value is given as 14.8; the “Selectivity ratio II/XII” value is 6.6. At hCA IX, the inhibition constant (Ki) is 853 nM, the “Selectivity ratio I/IX” value is recorded as 2.6 and the “Selectivity ratio II/IX” value came out at 1.2. This molecule also returned a Ki on hCA II of 998 nM. Further, the inhibition constant Ki at hCA I amounted to 2260 nM.

With `NS(=O)(=O)c1ccccc1Nc1ccnc2cc(C(F)(F)F)cc(C(F)(F)F)c12` [9d, 2-((5,7-bis(trifluoromethyl)quinolin-4-yl)amino)benzenesulfonamide], the Ki at hCA II stood at 112 nM; on hCA I it was 1560 nM.

`Cc1ccc2nccc(Nc3ccccc3S(N)(=O)=O)c2c1` [9a, 2-((6-methylquinolin-4-yl)amino)benzenesulfonamide] registered a melting point of 264 to 265 °C. For the same molecule, at hCA XII, the affinity corresponds to a Ki of 22.8 nM, the “Selectivity ratio I/XII” value was determined as 24.5 and the “Selectivity ratio II/XII” value worked out at 3.4. At hCA IX, the inhibitory constant (Ki) came out at 36.4 nM, the “Selectivity ratio I/IX” value stood at 15.3 and the “Selectivity ratio II/IX” value is 2.2. At hCA II, this molecule had a Ki of 78.4 nM. On hCA I, this molecule yielded a Ki of 558 nM.

For the molecule `Cc1ccc(Nc2ccnc3ccc(Cl)cc23)cc1S(N)(=O)=O` [11g, 5-((6-chloroquinolin-4-yl)amino)-2-methylbenzenesulfonamide], the melting point lay in the range of 282 to 285 °C. In addition, on hCA XII, the affinity, expressed as Ki, was 92.7 nM; the “Selectivity ratio I/XII” value was determined as 48.8; the “Selectivity ratio II/XII” value is given as 25.4. At hCA IX, the affinity corresponds to a Ki of 116 nM, the “Selectivity ratio I/IX” value is 38.9 and the “Selectivity ratio II/IX” value is 20.3. On hCA II, the affinity corresponds to a Ki of 2360 nM. Moreover, on hCA I, the inhibition constant (Ki) came to 4520 nM.

Consider `COc1ccc2nccc(Nc3cccc(S(N)(=O)=O)c3)c2c1` [11b, 3-((6-methoxyquinolin-4-yl)amino)benzenesulfonamide], for which the melting point is 244 to 246 °C. In addition, at hCA XII, the inhibition constant (Ki) was 73.1 nM, the “Selectivity ratio I/XII” value is listed as 3.5 and the “Selectivity ratio II/XII” value came to 5.0. Moreover, on hCA IX, the affinity corresponds to a Ki of 86.5 nM, the “Selectivity ratio I/IX” value stood at 3.0 and the “Selectivity ratio II/IX” value is given as 4.2. Besides, at hCA II, the Ki is 366 nM. Affinity at hCA I was put at a Ki of 258 nM.

In general, melting point refers to the temperature, or range, at which the solid turns liquid. Usually Ki stands for the equilibrium dissociation constant of an inhibitor or competing ligand from its target. What is called IC50 is the midpoint of a concentration-inhibition curve. Lower therefore signals higher potency.
